Laboratory results published in the kinase profiling compilation of Christmann-Franck et al. (2016).

Key:
Experiment in all cases: KINOMEscan competition binding
Conditions in all cases: compound 10.0 µM
SRPK3 (human) = SRPK3 (human) (UniProt Q9UPE1)
NEK1 (human) = NEK1 (human) (UniProt Q96PY6)
ITK (human) = ITK (human) (UniProt Q08881)
AXL (human) = AXL (human) (UniProt P30530)
STK25 (human) = STK25 (human) (UniProt O00506)
EPHA7 (human) = EPHA7 (human) (UniProt Q15375)
TEC (human) = TEC (human) (UniProt P42680)
TEC (human), sequence (P42680 whole entry, looked up): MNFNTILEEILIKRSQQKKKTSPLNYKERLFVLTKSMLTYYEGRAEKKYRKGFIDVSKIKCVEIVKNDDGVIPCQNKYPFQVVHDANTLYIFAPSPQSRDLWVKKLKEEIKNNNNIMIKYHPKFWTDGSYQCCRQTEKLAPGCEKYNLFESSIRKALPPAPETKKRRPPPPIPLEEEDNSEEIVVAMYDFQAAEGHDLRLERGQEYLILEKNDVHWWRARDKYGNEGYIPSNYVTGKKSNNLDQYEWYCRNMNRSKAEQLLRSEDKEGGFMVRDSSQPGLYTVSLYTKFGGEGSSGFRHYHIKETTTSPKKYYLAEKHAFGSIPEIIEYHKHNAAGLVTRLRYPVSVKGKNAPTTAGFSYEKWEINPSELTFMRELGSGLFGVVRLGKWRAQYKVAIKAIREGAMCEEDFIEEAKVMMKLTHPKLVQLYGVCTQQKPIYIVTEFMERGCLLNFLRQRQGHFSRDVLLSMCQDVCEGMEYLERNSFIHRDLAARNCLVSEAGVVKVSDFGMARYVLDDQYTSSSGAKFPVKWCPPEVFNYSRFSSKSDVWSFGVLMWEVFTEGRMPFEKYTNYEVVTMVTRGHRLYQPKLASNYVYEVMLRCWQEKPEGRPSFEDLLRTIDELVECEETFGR

PDPK1 (human) = PDPK1 (human) (UniProt O15530)
HCK (human) = HCK (human) (UniProt P08631)
ULK2 (human) = ULK2 (human) (UniProt Q8IYT8)
CAMK1G (human) = CAMK1G (human) (UniProt Q96NX5)
CAMK1G (human), sequence (Q96NX5 whole entry, looked up): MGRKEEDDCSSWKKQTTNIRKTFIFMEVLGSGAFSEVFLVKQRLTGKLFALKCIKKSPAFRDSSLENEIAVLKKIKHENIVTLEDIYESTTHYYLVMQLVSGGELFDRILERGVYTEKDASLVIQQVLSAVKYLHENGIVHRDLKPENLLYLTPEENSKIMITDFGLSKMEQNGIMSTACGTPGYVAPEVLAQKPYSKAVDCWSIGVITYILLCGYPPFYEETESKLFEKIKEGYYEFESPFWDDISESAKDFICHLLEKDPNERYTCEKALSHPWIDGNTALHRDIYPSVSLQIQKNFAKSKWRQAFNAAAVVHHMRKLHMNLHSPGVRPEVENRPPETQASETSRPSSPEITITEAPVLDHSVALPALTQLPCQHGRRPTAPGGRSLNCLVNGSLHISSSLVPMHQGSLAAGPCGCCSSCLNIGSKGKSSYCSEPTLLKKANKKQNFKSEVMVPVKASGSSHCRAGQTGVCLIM

RIOK3 (human) = RIOK3 (human) (UniProt O14730)
RIOK3 (human), sequence (O14730 whole entry, looked up): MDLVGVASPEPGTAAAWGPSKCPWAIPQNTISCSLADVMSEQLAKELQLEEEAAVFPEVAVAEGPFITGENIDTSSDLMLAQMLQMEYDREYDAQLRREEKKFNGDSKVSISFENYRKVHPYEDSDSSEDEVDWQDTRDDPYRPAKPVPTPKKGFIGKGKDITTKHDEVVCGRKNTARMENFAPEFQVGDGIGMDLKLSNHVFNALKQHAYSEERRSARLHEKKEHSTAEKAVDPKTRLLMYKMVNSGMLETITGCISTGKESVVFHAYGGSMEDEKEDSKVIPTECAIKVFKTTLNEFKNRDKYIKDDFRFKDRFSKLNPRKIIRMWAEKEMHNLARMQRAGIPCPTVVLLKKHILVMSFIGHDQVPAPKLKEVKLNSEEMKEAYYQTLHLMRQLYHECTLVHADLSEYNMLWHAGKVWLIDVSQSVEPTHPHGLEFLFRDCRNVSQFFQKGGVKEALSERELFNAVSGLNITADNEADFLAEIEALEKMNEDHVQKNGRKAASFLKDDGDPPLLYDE

RPS6KA4 KD1 (human) = RPS6KA4 KD1 (human) (UniProt O75676)
EPHB4 (human) = EPHB4 (human) (UniProt P54760)
STK3 (human) = STK3 (human) (UniProt Q13188)
ZAP70 (human) = ZAP70 (human) (UniProt P43403)
PRKD3 (human) = PRKD3 (human) (UniProt O94806)
PRKCD (human) = PRKCD (human) (UniProt Q05655)
LIMK1 (human) = LIMK1 (human) (UniProt P53667)
PLK4 (human) = PLK4 (human) (UniProt O00444)
PLK4 (human), sequence (O00444 whole entry, looked up): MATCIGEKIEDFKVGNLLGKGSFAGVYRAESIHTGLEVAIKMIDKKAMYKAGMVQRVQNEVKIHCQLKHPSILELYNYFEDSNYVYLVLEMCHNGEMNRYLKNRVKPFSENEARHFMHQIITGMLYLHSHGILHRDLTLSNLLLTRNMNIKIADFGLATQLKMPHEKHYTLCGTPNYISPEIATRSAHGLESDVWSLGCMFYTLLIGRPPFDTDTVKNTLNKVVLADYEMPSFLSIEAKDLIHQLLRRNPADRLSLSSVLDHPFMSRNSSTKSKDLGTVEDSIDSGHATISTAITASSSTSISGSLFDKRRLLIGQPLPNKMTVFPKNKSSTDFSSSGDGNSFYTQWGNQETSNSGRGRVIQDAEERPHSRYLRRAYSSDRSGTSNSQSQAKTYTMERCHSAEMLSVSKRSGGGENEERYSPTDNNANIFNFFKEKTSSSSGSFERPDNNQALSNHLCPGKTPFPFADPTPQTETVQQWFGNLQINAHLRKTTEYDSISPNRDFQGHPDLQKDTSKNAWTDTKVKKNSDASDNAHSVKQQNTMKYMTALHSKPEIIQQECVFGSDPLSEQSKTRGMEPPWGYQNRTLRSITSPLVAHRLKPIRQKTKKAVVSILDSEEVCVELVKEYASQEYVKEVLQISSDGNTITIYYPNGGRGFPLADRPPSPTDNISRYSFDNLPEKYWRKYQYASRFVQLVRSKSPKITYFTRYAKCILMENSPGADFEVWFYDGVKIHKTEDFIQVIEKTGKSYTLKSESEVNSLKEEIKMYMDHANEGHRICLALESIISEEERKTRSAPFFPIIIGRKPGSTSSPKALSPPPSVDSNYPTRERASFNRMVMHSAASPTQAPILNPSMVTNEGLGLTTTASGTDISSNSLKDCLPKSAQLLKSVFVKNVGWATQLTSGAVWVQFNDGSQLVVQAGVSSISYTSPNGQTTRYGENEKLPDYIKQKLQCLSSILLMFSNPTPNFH

ABL2 (human) = ABL2 (human) (UniProt P42684)
[1] = target: JAK1 JH2 pseudokinase (human) (UniProt P23458)
FGFR4 (human) = FGFR4 (human) (UniProt P22455)
MYO3A (human) = MYO3A (human) (UniProt Q8NEV4)
PKN1 (human) = PKN1 (human) (UniProt Q16512)
MARK4 (human) = MARK4 (human) (UniProt Q96L34)
PKN2 (human) = PKN2 (human) (UniProt Q16513)
PTK2 (human) = PTK2 (human) (UniProt Q05397)
WEE2 (human) = WEE2 (human) (UniProt P0C1S8)
STK32C (human) = STK32C (human) (UniProt Q86UX6)
ADCK4 (human) = ADCK4 (human) (UniProt Q96D53)
IGF1R (human) = IGF1R (human) (UniProt P08069)
PKMYT1 (human) = PKMYT1 (human) (UniProt Q99640)
PKMYT1 (human), sequence (Q99640 whole entry, looked up): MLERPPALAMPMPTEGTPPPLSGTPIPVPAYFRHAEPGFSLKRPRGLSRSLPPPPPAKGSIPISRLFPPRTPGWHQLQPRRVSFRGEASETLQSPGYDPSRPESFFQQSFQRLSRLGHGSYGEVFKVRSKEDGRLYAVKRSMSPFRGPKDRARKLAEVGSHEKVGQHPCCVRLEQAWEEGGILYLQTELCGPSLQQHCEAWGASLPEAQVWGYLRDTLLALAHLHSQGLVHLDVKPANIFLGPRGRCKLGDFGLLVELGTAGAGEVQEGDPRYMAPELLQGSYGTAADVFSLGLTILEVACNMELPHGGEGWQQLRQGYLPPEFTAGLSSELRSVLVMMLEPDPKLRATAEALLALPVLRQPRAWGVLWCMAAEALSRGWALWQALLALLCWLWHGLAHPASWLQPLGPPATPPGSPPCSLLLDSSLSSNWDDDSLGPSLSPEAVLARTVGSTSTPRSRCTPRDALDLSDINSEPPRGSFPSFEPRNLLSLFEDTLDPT

AAK1 (human) = AAK1 (human) (UniProt Q2M2I8)
TGFBR1 (human) = TGFBR1 (human) (UniProt P36897)
RPS6KA2 KD2 (human) = RPS6KA2 KD2 (human) (UniProt Q15349)
ACVR1 (human) = ACVR1 (human) (UniProt Q04771)
ACVR1 (human), sequence (Q04771 whole entry, looked up): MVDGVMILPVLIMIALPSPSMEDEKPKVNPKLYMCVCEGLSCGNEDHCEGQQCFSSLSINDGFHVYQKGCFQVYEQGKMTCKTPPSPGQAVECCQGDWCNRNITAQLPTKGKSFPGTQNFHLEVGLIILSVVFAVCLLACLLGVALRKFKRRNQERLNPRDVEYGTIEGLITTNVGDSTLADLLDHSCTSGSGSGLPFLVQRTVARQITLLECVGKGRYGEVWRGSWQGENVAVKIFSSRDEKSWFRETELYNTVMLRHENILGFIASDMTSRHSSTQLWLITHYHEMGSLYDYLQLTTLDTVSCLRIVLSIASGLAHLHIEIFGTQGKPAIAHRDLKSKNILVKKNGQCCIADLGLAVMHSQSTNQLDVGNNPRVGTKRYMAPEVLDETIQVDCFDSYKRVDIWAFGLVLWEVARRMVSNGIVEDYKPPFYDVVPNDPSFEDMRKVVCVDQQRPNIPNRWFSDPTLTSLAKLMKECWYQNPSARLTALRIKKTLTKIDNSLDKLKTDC

TNK1 (human) = TNK1 (human) (UniProt Q13470)
[2] = system: FLT3 (human), P36888 [ITD]
IKBKB (human) = IKBKB (human) (UniProt O14920)

NEK1 (human), sequence (Q96PY6 whole entry, looked up): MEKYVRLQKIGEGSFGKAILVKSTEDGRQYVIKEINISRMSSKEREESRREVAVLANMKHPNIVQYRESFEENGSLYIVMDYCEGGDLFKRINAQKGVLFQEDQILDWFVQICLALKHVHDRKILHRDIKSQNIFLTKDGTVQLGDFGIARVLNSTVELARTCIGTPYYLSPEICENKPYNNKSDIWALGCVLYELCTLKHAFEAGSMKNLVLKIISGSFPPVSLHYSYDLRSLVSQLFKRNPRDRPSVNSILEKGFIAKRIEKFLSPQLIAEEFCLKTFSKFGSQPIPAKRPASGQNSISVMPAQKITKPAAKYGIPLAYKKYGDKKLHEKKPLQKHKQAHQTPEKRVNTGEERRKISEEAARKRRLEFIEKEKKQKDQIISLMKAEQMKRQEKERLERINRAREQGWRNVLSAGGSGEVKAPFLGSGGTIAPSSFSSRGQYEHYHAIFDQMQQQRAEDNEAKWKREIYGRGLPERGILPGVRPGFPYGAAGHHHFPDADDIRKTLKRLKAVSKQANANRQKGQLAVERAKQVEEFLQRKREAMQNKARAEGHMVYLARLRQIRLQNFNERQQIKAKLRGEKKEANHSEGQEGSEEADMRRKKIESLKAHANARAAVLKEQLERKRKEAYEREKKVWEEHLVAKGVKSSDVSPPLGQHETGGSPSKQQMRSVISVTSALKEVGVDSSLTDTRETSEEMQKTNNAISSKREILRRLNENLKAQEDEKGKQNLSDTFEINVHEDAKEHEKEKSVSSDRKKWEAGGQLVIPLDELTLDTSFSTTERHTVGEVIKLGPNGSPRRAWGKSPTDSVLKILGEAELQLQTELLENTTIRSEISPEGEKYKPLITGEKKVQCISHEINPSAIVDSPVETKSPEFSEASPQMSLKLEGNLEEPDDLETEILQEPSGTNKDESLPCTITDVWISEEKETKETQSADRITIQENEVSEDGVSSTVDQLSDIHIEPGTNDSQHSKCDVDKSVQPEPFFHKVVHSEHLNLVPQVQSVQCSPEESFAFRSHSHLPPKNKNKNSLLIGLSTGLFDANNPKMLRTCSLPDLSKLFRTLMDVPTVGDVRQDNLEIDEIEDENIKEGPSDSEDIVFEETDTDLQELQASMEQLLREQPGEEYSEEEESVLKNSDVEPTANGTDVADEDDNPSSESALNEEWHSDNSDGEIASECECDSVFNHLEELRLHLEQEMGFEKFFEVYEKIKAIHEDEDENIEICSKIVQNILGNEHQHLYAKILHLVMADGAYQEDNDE

Row | Compound | kinase still bound, per cent of control (SRPK3 (human)) [%] | kinase still bound, per cent of control (NEK1 (human)) [%] | kinase still bound, per cent of control (ITK (human)) [%] | kinase still bound, per cent of control (AXL (human)) [%] | kinase still bound, per cent of control (STK25 (human)) [%] | kinase still bound, per cent of control (EPHA7 (human)) [%] | kinase still bound, per cent of control (TEC (human)) [%] | kinase still bound, per cent of control (PDPK1 (human)) [%] | kinase still bound, per cent of control (HCK (human)) [%] | kinase still bound, per cent of control (ULK2 (human)) [%] | kinase still bound, per cent of control (CAMK1G (human)) [%] | kinase still bound, per cent of control (RIOK3 (human)) [%] | kinase still bound, per cent of control (RPS6KA4 KD1 (human)) [%] | kinase still bound, per cent of control (EPHB4 (human)) [%] | kinase still bound, per cent of control (STK3 (human)) [%] | kinase still bound, per cent of control (ZAP70 (human)) [%] | kinase still bound, per cent of control (PRKD3 (human)) [%] | kinase still bound, per cent of control (PRKCD (human)) [%] | kinase still bound, per cent of control (LIMK1 (human)) [%] | kinase still bound, per cent of control (PLK4 (human)) [%] | also measured
1 | COc1cc(C(=O)NC2CCN(C)CC2)ccc1Nc1ncc2c(n1)N(C1CCCC1)CCC(=O)N2C(C)C | 100 | 100 | 100 | 100 | 100 | 100 | 100 | 100 | 100 | 100 | 100 | 100 | 100 | 100 | 100 | 100 | 100 | 0 | 100 | 100 | kinase still bound, per cent of control (ABL2 (human)): 100%; kinase still bound, per cent of control [1]: 100%; kinase still bound, per cent of control (FGFR4 (human)): 100%; kinase still bound, per cent of control (MYO3A (human)): 100%; kinase still bound, per cent of control (PKN1 (human)): 100%; kinase still bound, per cent of control (MARK4 (human)): 0%; kinase still bound, per cent of control (PKN2 (human)): 100%; kinase still bound, per cent of control (PTK2 (human)): 100%; kinase still bound, per cent of control (WEE2 (human)): 100%; kinase still bound, per cent of control (STK32C (human)): 100%; kinase still bound, per cent of control (ADCK4 (human)): 100%; kinase still bound, per cent of control (IGF1R (human)): 100%; kinase still bound, per cent of control (PKMYT1 (human)): 100%; kinase still bound, per cent of control (AAK1 (human)): 100%; kinase still bound, per cent of control (TGFBR1 (human)): 100%; kinase still bound, per cent of control (RPS6KA2 KD2 (human)): 100%; kinase still bound, per cent of control (ACVR1 (human)): 100%; kinase still bound, per cent of control (TNK1 (human)): 100%; kinase still bound, per cent of control [2]: 100%; kinase still bound, per cent of control (IKBKB (human)): 100%
2 | Cc1cc([C@@H](C)Nc2ccccc2C(=O)O)c2nc(N3CCOCC3)cc(=O)n2c1 | 100 | 85 | 98 | 86 | 76 | 89 | 91 | 100 | 100 | 100 | 91 | 100 | 94 | 96 | 66 | 100 | 100 | 82 | 100 | 100 | kinase still bound, per cent of control (ABL2 (human)): 95%; kinase still bound, per cent of control [1]: 100%; kinase still bound, per cent of control (FGFR4 (human)): 100%; kinase still bound, per cent of control (MYO3A (human)): 97%; kinase still bound, per cent of control (PKN1 (human)): 100%; kinase still bound, per cent of control (MARK4 (human)): 100%; kinase still bound, per cent of control (PKN2 (human)): 98%; kinase still bound, per cent of control (PTK2 (human)): 88%; kinase still bound, per cent of control (WEE2 (human)): 100%; kinase still bound, per cent of control (STK32C (human)): 82%; kinase still bound, per cent of control (ADCK4 (human)): 79%; kinase still bound, per cent of control (IGF1R (human)): 100%; kinase still bound, per cent of control (PKMYT1 (human)): 100%; kinase still bound, per cent of control (AAK1 (human)): 95%; kinase still bound, per cent of control (TGFBR1 (human)): 100%; kinase still bound, per cent of control (RPS6KA2 KD2 (human)): 98%; kinase still bound, per cent of control (ACVR1 (human)): 98%; kinase still bound, per cent of control (TNK1 (human)): 100%; kinase still bound, per cent of control [2]: 53%; kinase still bound, per cent of control (IKBKB (human)): 90%
